The record followed here is patent US20150133492A1, “N-desmethyldauricine, A Novel Autophagic Enhancer for Treatment of Cancers and Neurodegenerative Conditions Thereof” (Macau University of Science and Technology, priority 2013, published 2015).

For data set [1], the system named is HeLa cancer cells. Briefly: Quantification of autophagy GFP-LC3 puncta in HeLa. Particulars: 10 μM, 4 hours, compared to DMSO control. Type of data set: cell-based, human. On the procedure:
(§1) GFP-LC3 puncta formation was quantified as previously described^15. In brief, cells grown on coverslips in a 6-well plate were treated with or without 10 μM of N-desmethyldauricine for 4 hours, the cells were then fixed in 4% paraformaldehyde for 20 minutes at room temperature and then rinsed with PBS. Slides were mounted with FluorSave™ mounting media (Calbiochem, San Diego, Calif.) and examined by fluorescence microscopy. The number of GFP-positive cells with GFP-LC3 puncta formation was examined under the Nikon ECLIPSE 80i microscope. Representative images were captured with CCD digital camera Spot RT3™ (Diagnostic Instruments, Inc., Melville, N.Y.). To quantify for autophagy, the percentage of cells with punctate GFP-LC3 fluorescence was calculated by counting the number of the cells with punctate GFP-LC3 fluorescence in GFP-positive cells. A minimum of 150 cells from 3 randomly selected fields was scored.

Another data set has as its target T1, SERCA1A (Oryctolagus cuniculus, UniProt P04191).
T1 construct: Purified Ca^2+ ATPase (SERCA1A) is prepared from female rabbit hind leg muscle; from tissue; host or cells: female rabbit hind leg skeletal muscle (sarcoplasmic reticulum)
The data set can be described thus: Measurement of SERCA Ca2+ ATPase activity. Particulars: rabbit skeletal muscle SR, dose-dependent. Type of data set: biochemical. On the procedure: Purified Ca^2+ ATPase (SERCA1A) is prepared from female rabbit hind leg muscle^24. ATPase activity is determined using the enzyme-coupled method utilizing pyruvate kinase and lactate dehydrogenase as previously described in Michelangeli et al. (1990)^25. All SERCA inhibition data is fitted to the allosteric dose versus effect equation using Fig P (Biosoft):
Activity=minimum activity+(maximum activity−minimum activity)/(1+([I]IC50)P).
In molecular docking, 5000 poses were generated during the initial phase of the docking calculation, out of which the best 1000 poses were chosen for energy minimization by 1000 steps of conjugate gradient minimizations. The performance of molecular docking was evaluated by comparing the docked pose with the experimental structure for N-desmethyldauricine in the X-ray co-crystallized complex. TG in the X-ray co-crystallized complexes was re-docked into the binding sites and the RMSD for re-docked result of TG is 1.78 Å. […] To ascertain whether the SERCA pump is suppressed by N-desmethyldauricine, SERCA inhibitory effect is quantified using purified rabbit skeletal muscle sarcoplasmic reticulum (SR) membranes to measure the expression of the SERCA1A isoform by the SR membrances^26. Most of the existing SERCA inhibitors show similar inhibitory effect in SERCA isoform ^15,16. […]

Data set [2] relates to wild type Atg7 cells (Atg7+/+) mouse embryonic fibroblasts. The data set can be described thus: GFP-LC3 puncta in Atg7 wild-type MEFs. Type of data set: cell-based. The method, then: as §1, with “brief, both Atg7 wild-type and deficient mouse embryonic fibroblasts (MEFs)” for “brief, cells”, “with indicated concentrations” for “with or without 10 μM”, “of N-desmethyldauricine. Both Atg7 wild-type and deficient mouse embryonic fibroblasts” for “of N-desmethyldauricine for 4 hours, the cells”

For data set [3], the system named is HeLa cancer cells. Briefly: Transmission electron microscopy of autophagosomes/autolysosomes. The data set is classed as cell-based, human. Particulars: treated HeLa cancer cells. An excerpt:
N-desmethyldauricine treated HeLa cells were fixed overnight with 2.5% glutaraldehyde followed by a buffer wash. Samples were post-fixed in 1% OsO4 and embedded in Araldite 502. Ultrathin sections were double stained with uranyl acetate and lead citrate, and analyzed by Philips CM 100 transmission electron microscope at a voltage of 80 kV.

Data set [4] concerns panel of cancer and normal cells. The data set can be described thus: Quantification of autophagy GFP-LC3 puncta in cell panel. Type of data set: cell-based. Particulars: fluorescent microscopy. On the procedure: as §1
A further data set concerns PC 12 cells. The data set can be described thus: Crystal violet cell viability assay in PC-12. The data set is classed as cell-based. The following applies: 7.5 μM, 24 hours. The method, then:
For cell viability assay measured by crystal violet staining, PC-12 cells were incubated in 35 mm disc followed by the addition of N-desmethyldauricine at 7.5 μM for 24 hours. The cells were then incubated with crystal violet for 10 minutes followed by a ddH2O wash. The stained cells image was captured by CCD digital camera Spot RT3™ under the Nikon ECLIPSE 80i microscope with 4× magnification. Cell viability was quantified by dissolving stained cells in 10% acetic acid (200 μL/well). The colorimetric reading of the solute mixture was then determined by spectrophotometer at OD 560 nm. The percentage of cell viability was calculated using the following formula: Cell viability (%)=Cells numbertreated/Cells numberDMSO control×100. Data was obtained from three independent experiments.

In data set [5] the test system is panel of human cancer cells. The data set can be described thus: MTT cytotoxicity assay, panel of human cancer cells. The following applies: 72 hours, read-out: mean IC50, cell cytotoxicity. The data set is classed as cell-based. The method, then:
(§2) The test compound of N-desmethyldauricine was dissolved in DMSO at a final concentration of 100 mmol/L and stored at −20° C. Cytotoxicity was assessed using the 3-(4,5-dimethylthiazol-2-yl)-2,5-diphenyltetrazolium bromide assay as previously described^17. Cell number, 4000-8000 of HeLa (human cervical cancer), MCF-7 (human breast cancer), HepG2 (human liver cancer), Hep3B (human liver cancer), H1299 (human lung cancer), A549 (human lung cancer), PC3 (human prostate cancer), LLC-1 (mouse Lewis lung carcinoma) and LO2 (human normal liver) cells were seeded on 96-well plates per well, respectively. After overnight pre-incubation, the cells were exposed to different concentrations of N-desmethyldauricine (namely […], 0.039 μmol) for 3 days. Subsequently, 10 μL of MTT reagents was added to each well and incubated at 37° C. for 4 hours followed by the addition of 100 μL solubilization buffer (10% SDS in 0.01 mol/L HCl) and overnight incubation. Absorbance at 585 nm was determined from each well on the following day. The percentage of cell viability was calculated using the following formula: Cell viability (%)=Cells number treated/Cells number DMSO control×100. Data was obtained from three independent experiments.

In data set [6] the test system is human normal liver cells (LO2). Briefly: MTT cytotoxicity assay, normal liver cells. Particulars: read-out: IC50, cytotoxic effect. The data set is classed as cell-based. The method, then: as §2
In general terms: Formazan colour is commonly taken as a measure of viable cells.

T1 sequence (P04191 1-994 isoform P04191-2): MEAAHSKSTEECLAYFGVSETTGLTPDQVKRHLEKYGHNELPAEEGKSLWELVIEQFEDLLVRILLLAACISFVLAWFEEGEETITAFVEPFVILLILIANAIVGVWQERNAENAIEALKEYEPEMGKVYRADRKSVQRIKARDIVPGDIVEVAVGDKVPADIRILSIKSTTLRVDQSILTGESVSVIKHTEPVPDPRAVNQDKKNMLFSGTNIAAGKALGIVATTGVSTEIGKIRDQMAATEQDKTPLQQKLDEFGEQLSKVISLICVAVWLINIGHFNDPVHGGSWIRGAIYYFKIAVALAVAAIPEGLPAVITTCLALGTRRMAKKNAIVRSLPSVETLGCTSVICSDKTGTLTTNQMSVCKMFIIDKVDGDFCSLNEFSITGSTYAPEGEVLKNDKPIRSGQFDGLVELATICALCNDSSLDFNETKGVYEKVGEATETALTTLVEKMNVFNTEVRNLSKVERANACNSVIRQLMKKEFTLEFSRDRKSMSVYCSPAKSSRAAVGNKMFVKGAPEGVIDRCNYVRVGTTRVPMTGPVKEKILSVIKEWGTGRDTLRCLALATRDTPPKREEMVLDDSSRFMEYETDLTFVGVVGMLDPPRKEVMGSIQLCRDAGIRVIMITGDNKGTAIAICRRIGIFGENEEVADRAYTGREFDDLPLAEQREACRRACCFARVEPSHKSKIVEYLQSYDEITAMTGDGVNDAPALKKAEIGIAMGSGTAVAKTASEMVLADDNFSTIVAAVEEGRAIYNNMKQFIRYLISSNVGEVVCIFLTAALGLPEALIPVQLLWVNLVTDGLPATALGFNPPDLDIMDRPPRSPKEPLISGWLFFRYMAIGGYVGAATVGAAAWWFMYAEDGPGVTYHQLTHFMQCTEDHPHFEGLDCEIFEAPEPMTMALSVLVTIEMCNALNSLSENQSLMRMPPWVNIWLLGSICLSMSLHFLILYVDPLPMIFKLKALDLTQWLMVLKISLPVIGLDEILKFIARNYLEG

In general, IC50 refers to the concentration needed to halve the response being measured. With `COc1cc2c(cc1OC)[C@@H](Cc1ccc(Oc3cc(C[C@H]4NCCc5cc(OC)c(OC)cc54)ccc3O)cc1)N(C)CC2` [N-desmethyldauricine], the figures for the GFP-LC3 puncta formation entry (with HeLa cancer cells [1]; in data set [2]; in data set [4]) were “significantly induced”, “induce GFP-LC3 puncta formation” and “increased”, respectively. Moreover, the “Ca2+ ATPase activity of SERCA” value at SERCA1A is listed as “inhibited”. Moreover, in the data set on HeLa cancer cells [3], the “autophagosomes/autolysosomes by electron microscopy” value is given as “found”. In the data set with PC 12 cells, the “toxicity in PC 12 cells” value is on record as “no toxicity”. Further, the 50% inhibitory concentration (IC50) is 8.23 to 19.7 µM in data set [5] and over 62.1 µM in data set [6].
